How the values were obtained:
sarcoma S180 = test: Antitumour activity against sarcoma S180 (tumour weight); format: in vivo, Male Swiss Schneider mice; details: S180, host SN; VCR 0.5 mg/kg ip days 1-6; in combination CRON 200 mg/kg ip days 1-6, 6hrs before VCR; CMC-controls 1.05
Excerpt: (§1) Antitumour effects. Male Swiss Schneider mice of 27g body weight were used for the sarcoma S180 experiments: female C₅₇Bl mice of 20g body weight were used for the B16 melanoma experiments; male BDF₁ mice of 30g body weight were used for the L1210 leukaemia experiments; and C₅₇Bl mice of 20g body weight were used for the Lewis lung experiments.
Sarcoma S180. This tumour has been transplanted in the same strain of mouse for more than 10 years.
Transplantation was done by subcutaneous inoculation of 0.1 ml of a tumour mash made by finely mincing viable tumour tissue and passing it repeatedly through a 26 gauge needle into a sterile Petri dish. 0.1 ml of penicillin (20,000 m/ml) and streptomycin (20,000 m/ml) were added to the mash, as well as neomycin (5 mgs).

[1] = Acute vincristine toxicity in mice, with and without Cronassial; format: in vivo, Male Swiss Schneider mice
Protocol: (§2) Toxicity acute and chronic. Male Swiss Schneider mice with a body weight of 25-30g were used for these experiments. Mice were usually kept in groups of not more than 8 in standard cages. Food and water were supplied ad libidum. The animals were kept in experimental rooms under closely controlled conditions. They were weighed daily. For acute vincristine toxicity in chicks, 48 hour old SPF chicks were used.
(§3) Vincristine. A standard vial of 'Oncovin' (Eli Lilly Co.) containing 1 mg of vincristine was used. It was made up with the appropriate volume of diluting fluid to give the final concentration required to inject 0.1 ml/10 g body weight.
(§4) Cronassial®. A solution of this substance, which is a mixture of four gangliosides, was prepared by the addition of a volume of sterile distilled water sufficient to give a concentration of 200 mg/kg in a volume of 0.2 ml. This dose was given to mice of approximately 20g.

[2] = Acute vincristine toxicity in chicks, with and without Cronassial; format: in vivo, 48 hour old SPF chicks; details: for SURVIVORS AT 24hrs / SURVIVORS AT 28hrs / SURVIVORS AT 52hrs: acute, SPF 48hr chick, in combination CRON 200 mg/kg at same time
Protocol: as §2
In contrast,of those chicks which received 200 mg/kg Cronassial® at the same time as the vincristine, only 2/5 had died at 24 hours but only 1 remained alive at 28 hours.
With 4 mg/kg vincristine, 4/5 chicks survived for 24 hours but only 1/5 survived for 28 hours. The chicks which additionally, received 200 mg/kg Cronassial® survived better with 3/5 surviving to 28 hours.

melanoma B16 = test: Antitumour activity against melanoma B16 (tumour weight); format: in vivo, female C₅₇Bl mice; details: B16, host C5781; VCR 0.5 mg/kg ip days 1-4,7-11; in combination CRON 200 mg/kg, 6hrs before VCR; CMC-controls 2.33
Protocol: as §1
Melanoma B16. This tumour was prepared for inoculation in a manner identical to that used for the S180 sarcoma.

leukaemia L1210 = test: Antitumour activity against leukaemia L1210 (survival); format: in vivo, BDF₁ mice; details: L1210, host BDF1; VCR 1.0 mg/kg ip days 1-3; in combination CRON 200 mg/kg ip days 1-3, same time as VCR; CMC-controls 8.0
Protocol: Antitumour effects. Male Swiss Schneider mice of 27g body weight were used for the sarcoma S180 experiments: female C₅₇Bl mice of 20g body weight were used for the B16 melanoma experiments; […]; and C₅₇Bl mice of 20g body weight were used for the Lewis lung experiments.
L1210. Spleens were removed from animals 7 days after inoculation of L1210 cells and these spleens were finely minced with 1:100 isotonic saline. 0.1 ml of this spleen and leukaemia L1210 cell suspension was then injected subcutaneously into the flank of each BDF₁.

[3] = Chronic vincristine toxicity in mice, with and without Cronassial; format: in vivo, Male Swiss Schneider mice; details: for SURVIVORS No.at 30 d / survival at 720 h: chronic, host SN; for survival at 720 h: ip, 200 mg/kg, read-out: SURVIVAL % at 30 d
Protocol: as §2, §3, §4
Giving daily injections of vincristine of 0.8 mg/kg for 5 days was close to the LD₅₀. By giving 200 mg/kg Cronassial® at the same time as the vincristine, the number of survivors at 30 days was increased to 100% Almost identical results were obtained by using 1 mg/kg vincristine, even though the drugs were administered for only 4 days. However the total dosage of vincristine administered in the two experiments (4 mg/kg) was identical. Increasing the cumulative dose of vincristine from 4 to 5 mg/kg increased the mortality of the mice to 100%. With this overwhelming toxicity, there was little or no protection offered by the Cronassial®.

Question: For `CC[C@]1(O)C[C@H]2CN(CCc3c([nH]c4ccccc34)[C@@](C(=O)OC)(c3cc4c(cc3OC)N(C=O)[C@H]3[C@@](O)(C(=O)OC)[C@H](OC(C)=O)[C@]5(CC)C=CCN6CC[C@]43[C@@H]65)C2)C1` [VCR, vincristine], which “TUMOUR WEIGHTS MEAN” value (sarcoma S180) is on record?
Answer: 0.64 g

Question: What about the “SURVIVORS No.at 30 d” value ([1]; acute, host SN, VCR 3.0 mg/kg iv day 1, in combination CRON 200 mg/kg ip day 1, 6hrs before VCR) of the same compound?
Answer: 2/8

Question: What about the survival at 720 h ([1]; mouse, in vivo, acute, host SN, VCR 3.0 mg/kg iv day 1, in combination CRON 200 mg/kg ip day 1, 6hrs before VCR, read-out: SURVIVAL % at 30 d) of the same compound?
Answer: 25%

Question: What about the mortality at 720 h ([1]; mouse, in vivo, vincristine 3.0 mg/kg, one intravenous injection, Swiss Schneider mice, in combination 200 mg/kg Cronassial 6 hours before, read-out: deaths by day 30) of the same compound?
Answer: 75%

Question: And the toxicity ([2]; 48 hour old chicks, vincristine 2 mg/kg, in combination Cronassial also given)?
Answer: little toxicity

Question: What about the “chicks with no acute neurotoxic signs during the first 4 hours” value ([2]; 48 hour old chicks, vincristine 6 mg/kg) of the same compound?
Answer: 3/4

Question: What about the “dead at 24 hours” value ([2]; 48 hour old chicks, vincristine 6 mg/kg, in combination 200 mg/kg Cronassial at the same time) of the same compound?
Answer: All the chicks were dead

Question: And the “SURVIVORS AT 24hrs” value ([2]; VCR 2.0 mg/kg ip day 1)?
Answer: 2/2

Question: And the “SURVIVORS AT 28hrs” value ([2]; VCR 2.0 mg/kg ip day 1)?
Answer: 2/2

Question: What about the “SURVIVORS AT 52hrs” value ([2]; VCR 2.0 mg/kg ip day 1) of the same compound?
Answer: 1/2

Question: What about the “SURVIVORS AT 24hrs” value ([2]; VCR 4.0 mg/kg ip day 1) of the same compound?
Answer: 4/5

Question: What about the “SURVIVORS AT 28hrs” value ([2]; VCR 4.0 mg/kg ip day 1) of the same compound?
Answer: 1/5

Question: And the “SURVIVORS AT 52hrs” value ([2]; VCR 4.0 mg/kg ip day 1)?
Answer: 1/5

Question: And the “SURVIVORS AT 24hrs” value ([2]; VCR 6.0 mg/kg ip day 1)?
Answer: 0/4

Question: And the “TUMOUR WEIGHTS MEAN” value (melanoma B16)?
Answer: 1.46 g

Question: What about the “Mean survival time” value (leukaemia L1210) of the same compound?
Answer: 7.8 days

Question: What about the “SURVIVORS No.at 30 d” value ([3]; VCR 0.8 mg/kg ip days 1-5, in combination CRON 200 mg/kg ip days 1-5, 6hrs before VCR) of the same compound?
Answer: 5/8

Question: What about the “SURVIVORS No.at 30 d” value ([3]; VCR 1.0 mg/kg ip days 1-4, in combination CRON 200 mg/kg ip days 1-4, 6hrs before VCR) of the same compound?
Answer: 3/8

Question: What about the “SURVIVORS No.at 30 d” value ([3]; VCR 1.0 mg/kg ip days 1-5, in combination CRON 200 mg/kg ip days 1-5, 6hrs before VCR) of the same compound?
Answer: 0/6

Question: And the survival at 720 h ([3]; mouse, in vivo, VCR 0.8 mg/kg ip days 1-5, in combination CRON 200 mg/kg ip days 1-5, 6hrs before VCR)?
Answer: 62.5%

Question: What about the survival at 720 h ([3]; mouse, in vivo, VCR 1.0 mg/kg ip days 1-4, in combination CRON 200 mg/kg ip days 1-4, 6hrs before VCR) of the same compound?
Answer: 37.5%

Question: And the survival at 720 h ([3]; mouse, in vivo, VCR 1.0 mg/kg ip days 1-5, in combination CRON 200 mg/kg ip days 1-5, 6hrs before VCR)?
Answer: 0%

Question: And the mortality ([3]; mouse, in vivo, cumulative dose of vincristine 5 mg/kg, mice)?
Answer: 100%

Question: What about the LD50 ([3]; mouse, in vivo, daily injections of vincristine for 5 days, mice, read-out: LD₅₀) of the same compound?
Answer: ~0.8 mg/kg

Source: EP0345251B1 (priority 1986, dated 1988)
